Measurements reported in ChEMBL document CHEMBL5104164, “Design, synthesis, and biological evaluation of pyrrolopyrimidine derivatives as novel Bruton's tyrosine kinase (BTK) inhibitors” (Eur J Med Chem, 2022).

Assays:
TMD8 [1] = assay: Antiproliferative activity against human TMD8 cells incubated for 72 hrs by CellTiter-Glo assay; details: TMD8, 72 h
Rec1 = assay: Antiproliferative activity against human REC1 cells incubated for 72 hrs by CellTiter-Glo assay; format: functional, cell-based; details: Rec1, 72 h
Pfeiffer = assay: Antiproliferative activity against human Pfeiffer cells incubated for 72 hrs by CellTiter-Glo assay; format: functional, cell-based
OCI-Ly3 = assay: Antiproliferative activity against human OCILY3 cells incubated for 72 hrs by CellTiter-Glo assay; format: functional, cell-based; details: OCI-Ly3, 72 h
SUD4 = assay: Antiproliferative activity against human SU-DHL-4 cells incubated for 72 hrs by CellTiter-Glo assay; format: functional, cell-based; details: SU-DHL-4, 72 h
DOHH-2 = assay: Antiproliferative activity against human DOHH-2 cells incubated for 72 hrs by CellTiter-Glo assay; format: functional, cell-based; details: DOHH-2, 72 h
SU-DHL-6 = assay: Antiproliferative activity against human SU-DHL-6 cells incubated for 72 hrs by CellTiter-Glo assay; format: functional, cell-based; details: SU-DHL-6, 72 h
[2] = Antiproliferative activity against human MINO cells incubated for 72 hrs by CellTiter-Glo assay; format: functional, cell-based
Raji = assay: Antiproliferative activity against human Raji cells incubated for 72 hrs by CellTiter-Glo assay; format: functional, cell-based
Ramos = assay: Antiproliferative activity against human Ramos cells incubated for 72 hrs by CellTiter-Glo assay; format: functional, cell-based
TMD8 [3] = assay: Antitumor activity against human TMD8 cells xenografted in female CB-17 SCID nude mouse assessed as tumor growth inhibition at 25 mg/kg, po administered twice daily for 21 days; format: functional; details: TMD8, 504 h, time 21 day, read-out: TGI
[4] = Toxicity in female CB-17 SCID nude mouse xenografted with human TMD8 cells assessed as effect on body weight at 25 mg/kg, po administered twice daily for 21 days; format: organism-based; details: in vivo, 504 h, time 21 day
Homo sapiens = species: Homo sapiens; assay: Selectivity ratio for inhibition of BTK (unknown origin) over EGFR (unknown origin)
[5] = molecular target: Tyrosine-protein kinase BTK (Homo sapiens, UniProt Q06187); assay: Inhibition of BTK (unknown origin) measured by ADP-Glo assay
[6] = Tmax in male BALB/c mouse at 2 mg/kg, iv; format: ADME, organism-based; details: in vivo
[7] = Cmax in male BALB/c mouse at 2 mg/kg, iv; format: ADME, organism-based; set-up: dose 2 mg/kg, route iv; details: in vivo
[8] = AUC (0 to t) in male BALB/c mouse at 2 mg/kg, iv; format: ADME, organism-based; set-up: dose 2 mg/kg, route iv; details: in vivo
[9] = AUC (0 to infinity) in male BALB/c mouse at 2 mg/kg, iv; format: ADME, organism-based; set-up: time infinity, dose 2 mg/kg, route iv; details: in vivo
[10] = Half-life in male BALB/c mouse at 2 mg/kg, iv; format: ADME, organism-based; details: in vivo
[11] = Apparent volume of distribution in male BALB/c mouse at 2 mg/kg, iv; format: ADME, organism-based; details: in vivo, read-out: Vz
[12] = Clearance in male BALB/c mouse at 2 mg/kg, iv; format: ADME, organism-based; details: in vivo
[13] = Oral bioavailability in male BALB/c mouse; format: ADME, organism-based; details: in vivo
[14] = Tmax in male BALB/c mouse at 10 mg/kg, po; format: ADME, organism-based; details: in vivo
[15] = Cmax in male BALB/c mouse at 10 mg/kg, po; format: ADME, organism-based; set-up: dose 10 mg/kg, route po; details: in vivo
[16] = AUC (0 to t) in male BALB/c mouse at 10 mg/kg, po; format: ADME, organism-based; set-up: dose 10 mg/kg, route po; details: in vivo
[17] = AUC (0 to infinity) in male BALB/c mouse at 10 mg/kg, po; format: ADME, organism-based; set-up: time infinity, dose 10 mg/kg, route po; details: in vivo
[18] = Half-life in male BALB/c mouse at 10 mg/kg, po; format: ADME, organism-based; details: in vivo

Chain of Tyrosine-protein kinase BTK (Q06187 whole entry): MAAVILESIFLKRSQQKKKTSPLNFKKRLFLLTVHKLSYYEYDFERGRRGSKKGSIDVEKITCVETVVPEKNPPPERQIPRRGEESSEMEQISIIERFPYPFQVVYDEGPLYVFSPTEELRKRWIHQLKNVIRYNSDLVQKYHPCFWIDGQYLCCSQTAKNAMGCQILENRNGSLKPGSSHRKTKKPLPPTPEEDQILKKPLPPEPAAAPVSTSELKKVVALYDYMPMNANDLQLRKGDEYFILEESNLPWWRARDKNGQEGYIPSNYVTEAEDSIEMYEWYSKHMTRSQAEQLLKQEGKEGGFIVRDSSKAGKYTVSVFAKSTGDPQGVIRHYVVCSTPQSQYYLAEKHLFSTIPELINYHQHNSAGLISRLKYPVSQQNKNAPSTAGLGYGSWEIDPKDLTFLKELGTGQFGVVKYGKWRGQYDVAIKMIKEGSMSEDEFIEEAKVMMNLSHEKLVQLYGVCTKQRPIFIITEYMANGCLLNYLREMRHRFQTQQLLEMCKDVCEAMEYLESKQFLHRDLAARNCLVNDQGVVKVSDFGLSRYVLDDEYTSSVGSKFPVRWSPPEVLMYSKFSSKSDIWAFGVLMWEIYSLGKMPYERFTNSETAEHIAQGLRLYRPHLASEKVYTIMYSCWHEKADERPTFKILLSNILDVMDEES

Compound | IC50 [5] [nM] | IC50 (TMD8 [1]) [nM] | further results
C=CC(=O)N1CCC[C@@H](n2nc(-c3ccc(Oc4ccccc4)cc3)c3c(N)ncnc32)C1 [IBRUTINIB] | – | 2.7 | IC50 (Rec1): 0.8 nM; IC50 (Pfeiffer): 1650 nM; IC50 (OCI-Ly3): > 10000 nM; IC50 (SUD4): 804 nM; IC50 (DOHH-2): 506 nM; IC50 (SU-DHL-6): 1500 nM; IC50 [2]: > 10000 nM; IC50 (Raji): > 10000 nM; IC50 (Ramos): 2090 nM; inhibition in vivo at 25 mg/kg (TMD8 [3]): 103%; Activity [4]: Non-Toxic
C=CC(=O)N1CCC([C@@H]2CCNc3c(C(N)=O)c(-c4ccc(Oc5ccccc5)cc4)nn32)CC1 | – | – | Selectivity ratio (Homo sapiens): 8.7
CC#CC(=O)N1CC=C(c2c[nH]c3ncnc(-c4ccc(CNC(=O)Nc5ccccc5)c(F)c4)c23)CC1 | 1.4 | 7.2 | –
C=CC(=O)NCCNc1ncnc2[nH]cc(C(=O)N3CC(Oc4ccccc4)C3)c12 | 92.9 | – | –
C=CC(=O)N1CC[C@H](n2nc(C#Cc3cc(OC)cc(OC)c3)c3c(N)ncnc32)C1 [FUTIBATINIB] | 94.9 | – | –
C=CC(=O)N1CC=C(c2c[nH]c3ncnc(-c4ccc(CNC(=O)Nc5ccccc5)c(F)c4)c23)CC1 | 0.8 | 12.1 | –
CC#CC(=O)N1CCC(Nc2ncnc3[nH]cc(C(=O)N4CC(Oc5ccccc5)C4)c23)C1 (configuration not stated) | 68.5 | – | –
C=CC(=O)N1CCC(CNc2ncnc3[nH]cc(C(=O)N4CC(Oc5ccc6ccccc6c5)C4)c23)CC1 | 1.4 | 28 | –
C=CC(=O)N1CCC(CNc2ncnc(N)c2-c2ccc(Oc3ccccc3)cc2)CC1 [EVOBRUTINIB] | – | 56.2 | –
C=CC(=O)N1CC=C(c2c[nH]c3ncnc(-c4ccc(CNC(=O)c5ccc(C(C)(C)C)cc5)cc4)c23)CC1 | 2.5 | – | –
C=CC(=O)N1CCC(CNc2ncnc3[nH]cc(C(=O)N4CC(Oc5ccccn5)C4)c23)CC1 | 0.8 | 38.1 | –
C=CC(=O)N1CCC(Nc2ncnc3[nH]cc(C(=O)N4CC(Oc5ccccc5)C4)c23)C1 (configuration not stated) | 4.5 | 2530 | –
C=CC(=O)N1CCC(CNc2ncnc3[nH]cc(C(=O)N4CC(Oc5cccc(C)c5)C4)c23)CC1 | 0.5 | 15.6 | –
C=CC(=O)N1CCC(O)(CNc2ncnc3[nH]cc(C(=O)N4CC(Oc5ccccc5)C4)c23)CC1 | 2.2 | 320 | –
C=CC(=O)N1CC=C(c2c[nH]c3ncnc(-c4ccc(CNC(=O)c5ccc(C(C)(C)C)cc5)c(F)c4)c23)CC1 | 1.3 | 3.4 | –
CC#CC(=O)N1CCC(c2c[nH]c3ncnc(-c4ccc(CNC(=O)c5ccc(C(C)(C)C)cc5)cc4)c23)CC1 | 2.2 | – | –
C=CC(=O)N1CCC(CNc2ncnc3[nH]cc(C(=O)N4CC(Oc5cccc(Cl)c5)C4)c23)CC1 | 0.5 | 12.9 | Tmax [6]: 3 min; Cmax [7]: 1.25 µg/mL; AUC(0-t) [8]: 0.359 µg·h/mL; AUC(0-inf) [9]: 0.541 µg·h/mL; half-life [10]: 11.4 min; Vd [11]: 1.52 L/kg; clearance [12]: 5.57 L/h/kg; bioavailability [13]: 1.82%; Tmax [14]: 6.6 min; Cmax [15]: 0.0486 µg/mL; AUC(0-t) [16]: 0.0328 µg·h/mL; AUC(0-inf) [17]: 0.0329 µg·h/mL; half-life [18]: 23.4 min
C=CC(=O)N1CCC(CNc2ncnc3[nH]cc(C(=O)N4CC(Oc5cccc(C(F)(F)F)c5)C4)c23)CC1 | 1.6 | 22.4 | –
CC#CC(=O)N1CC=C(c2c[nH]c3ncnc(-c4ccc(CNC(=O)c5ccc(C(C)(C)C)cc5)c(C)c4)c23)CC1 | 1.1 | 1.7 | –
CC#CC(=O)N1CC=C(c2c[nH]c3ncnc(-c4ccc(CNC(=O)c5ccc(C(C)(C)C)cc5)c(F)c4)c23)CC1 | 0.8 | 1.7 | –
CC#CC(=O)N1CCC(c2c[nH]c3ncnc(-c4ccc(CNC(=O)c5ccc(C(C)(C)C)cc5)c(F)c4)c23)CC1 | 1.2 | 1.8 | Tmax [6]: 1.8 min; Cmax [7]: 2.16 µg/mL; AUC(0-t) [8]: 0.229 µg·h/mL; AUC(0-inf) [9]: 0.231 µg·h/mL; half-life [10]: 167 min; Vd [11]: 34.8 L/kg; clearance [12]: 8.67 L/h/kg; bioavailability [13]: 0.78%; Tmax [14]: 4.8 min; Cmax [15]: 0.0499 µg/mL; AUC(0-t) [16]: 0.00894 µg·h/mL; AUC(0-inf) [17]: 0.00957 µg·h/mL; half-life [18]: 83.4 min

The next lines start with results.

IC50 [5] [nM] | Compound | IC50 (TMD8 [1]) [nM] | further results
1.2 | C=CC(=O)N1CC=C(c2c[nH]c3ncnc(-c4ccc(CNC(=O)c5ccc(C6CC6)cc5)c(F)c4)c23)CC1 | 0.8 | –
98.7 | C=CC(=O)N1CCC(CNc2ncnc3[nH]cc(C(=O)Nc4ccccc4)c23)CC1 | – | –
17.3 | C=CC(=O)N1CCC(CNc2ncnc3[nH]cc(C(=O)NCCc4ccccc4)c23)CC1 | – | –
0.8 | C=CC(=O)N1CCC(c2c[nH]c3ncnc(-c4ccc(CNC(=O)c5ccc(C(C)(C)C)cc5)c(C)c4)c23)CC1 | 1.5 | –
1.9 | C=CC(=O)N1CCCC(Nc2ncnc3[nH]cc(C(=O)N4CC(Oc5ccccc5)C4)c23)C1 (configuration not stated) | 454 | –
0.8 | C=CC(=O)N1CCC(CNc2ncnc3[nH]cc(C(=O)N4CC(Oc5cccc6ccccc56)C4)c23)CC1 | 22.6 | –
5410 | C=CC(=O)NC1CCCN(c2ncnc3[nH]cc(C(=O)N4CC(Oc5ccccc5)C4)c23)C1 (configuration not stated) | – | –
0.4 | C=CC(=O)N1CCC(CNc2ncnc3[nH]cc(C(=O)N4CC(Oc5cccc(F)c5)C4)c23)CC1 | 9.2 | Tmax [6]: 1.8 min; Cmax [7]: 2.23 µg/mL; AUC(0-t) [8]: 0.539 µg·h/mL; AUC(0-inf) [9]: 0.541 µg·h/mL; half-life [10]: 15.6 min; Vd [11]: 1.37 L/kg; clearance [12]: 3.71 L/h/kg; bioavailability [13]: 2.58%; Tmax [14]: 15 min; Cmax [15]: 0.148 µg/mL; AUC(0-t) [16]: 0.0695 µg·h/mL; AUC(0-inf) [17]: 0.0753 µg·h/mL; half-life [18]: 57 min
593 | C=CC(=O)N1CCC(Nc2ncnc3[nH]cc(C(=O)N4CC(Oc5ccccc5)C4)c23)CC1 | – | –
2.1 | C=CC(=O)N1CCC(c2c[nH]c3ncnc(-c4ccc(CNC(=O)c5ccc(C(C)(C)C)cc5)cc4)c23)CC1 | – | –
1.4 | CC#CC(=O)N1CCC(c2c[nH]c3ncnc(-c4ccc(CNC(=O)c5ccc(C(C)(C)C)cc5)c(C)c4)c23)CC1 | – | –
153 | CC#CC(=O)N1CCCC(Nc2ncnc3[nH]cc(C(=O)N4CC(Oc5ccccc5)C4)c23)C1 (configuration not stated) | – | –
2 | C=CC(=O)N1CCC(CNc2ncnc3[nH]cc(C(=O)N4CC(OCc5ccccc5)C4)c23)CC1 | 30.7 | –
52.3 | C=CC(=O)N1CCC(CNc2ncnc3[nH]cc(C(=O)NCc4ccccc4)c23)CC1 | – | –
8.4 | C=CC(=O)N1CCC(CNc2ncnc3[nH]cc(C(=O)NCCOc4ccccc4)c23)CC1 | – | –
31.7 | CCOc1cc2ncc(C#N)c(Nc3ccc(OCc4ccccn4)c(Cl)c3)c2cc1NC(=O)/C=C/[C@H]1CCCN1C [PYROTINIB] | – | –
11.1 | CC#CC(=O)N1CC=C(c2c[nH]c3ncnc(-c4ccc(CNC(=O)c5ccc(C(C)(C)C)cc5)cc4)c23)CC1 | – | –
26.2 | C=CC(=O)N1CCC(CNc2ncnc3[nH]cc(C(=O)N4CCC(Oc5ccccc5)CC4)c23)CC1 | – | –
1.34 | C=CC(=O)N1CC=C(c2c[nH]c3ncnc(-c4ccc(CNC(=O)c5ccc(C(C)(C)C)cc5)c(C)c4)c23)CC1 | – | –
> 10000 | CC#CC(=O)NC1CCCN(c2ncnc3[nH]cc(C(=O)N4CC(Oc5ccccc5)C4)c23)C1 (configuration not stated) | – | –
1 | CC#CC(=O)N1CC=C(c2c[nH]c3ncnc(-c4ccc(CNC(=O)c5ccccc5)c(F)c4)c23)CC1 | 5.4 | –
974 | CC#CC(=O)N1CCC(Nc2ncnc3[nH]cc(C(=O)N4CC(Oc5ccccc5)C4)c23)CC1 | – | –
1.9 | CC#CC(=O)N1CC=C(c2c[nH]c3ncnc(-c4ccc(CNC(=O)c5ccc(C6CC6)cc5)c(F)c4)c23)CC1 | 1.2 | –
23.2 | C=CC(=O)N1CCC(CNc2ncnc3[nH]cc(C(=O)N4CC(OC(C)C)C4)c23)CC1 | – | –
1.9 | C=CC(=O)N1CCC(c2c[nH]c3ncnc(-c4ccc(CNC(=O)c5ccc(C(C)(C)C)cc5)c(F)c4)c23)CC1 | – | –
0.6 | C=CC(=O)N1CCC(CNc2ncnc3[nH]cc(C(=O)N4CC(Oc5ccccc5)C4)c23)CC1 | 24.4 | –
0.7 | C=CC(=O)N1CCC(CNc2ncnc3[nH]cc(C(=O)N4CC(Oc5ccc(F)cc5)C4)c23)CC1 | 84.1 | –
16.4 | CC#CC(=O)N1CCC(CNc2ncnc3[nH]cc(C(=O)N4CC(Oc5ccccc5)C4)c23)CC1 | – | –
